Experimental data as given in PubChem BioAssay (NCI).
Several values for one entry are separate records, joined by “and”; a condition that tells them apart may be missing. Equal entries are not always repeated.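 Values below derive from 48-hour exposures of cells grown in 96-well plates, with endpoints linearly interpolated between the two concentrations bracketing the appropriate inhibition level. Here, GI50 denotes the concentration required for 50% inhibition of growth. The concentration for full growth arrest is given as TGI.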

Assays:
Assay in all cases: DTP human tumour cell line panel, 48 h
ACHN renal = tested on: ACHN renal
CCRF-CEM leukemia = tested on: CCRF-CEM leukemia
HOP-92 NSCLC = tested on: HOP-92 NSCLC
HT29 colon = tested on: HT29 colon
K-562 leukemia = tested on: K-562 leukemia
KM12 colon = tested on: KM12 colon
MDA-MB-231 breast = tested on: MDA-MB-231 breast
SK-MEL-28 melanoma = tested on: SK-MEL-28 melanoma
U251 CNS = tested on: U251 CNS
UACC-62 melanoma = tested on: UACC-62 melanoma

| SMILES | GI50 (ACHN renal) | TGI (ACHN renal) | GI50 (CCRF-CEM leukemia) | TGI (CCRF-CEM leukemia) | GI50 (HOP-92 NSCLC) | TGI (HOP-92 NSCLC) | GI50 (HT29 colon) | TGI (HT29 colon) | GI50 (K-562 leukemia) [µM] | TGI (K-562 leukemia) | GI50 (KM12 colon) | TGI (KM12 colon) | GI50 (MDA-MB-231 breast) | TGI (MDA-MB-231 breast) | GI50 (SK-MEL-28 melanoma) | TGI (SK-MEL-28 melanoma) | GI50 (U251 CNS) | TGI (U251 CNS) | GI50 (UACC-62 melanoma) | TGI (UACC-62 melanoma) |
| --- | --- | --- | --- | --- | --- | --- | --- | --- | --- | --- | --- | --- | --- | --- | --- | --- | --- | --- | --- | --- |
| C=CC(=O)Nc1cccc(C)c1Nc1cc(-c2cccnc2Cc2c(C)c(OC)cc(OC)c2C)ncn1 | 17.3 µM | > 100 µM | 8.26 µM | > 100 µM | 9.91 µM | 47.3 µM | 20.3 µM | > 100 µM | 7.55 | > 100 µM | 13.4 µM | 34.2 µM | 5.65 µM | 70.9 µM | 16.9 µM | 69.2 µM | 6.26 µM | 30 µM | 10.3 µM | 25.9 µM |
| C=C1CC[C@@H]2[C@](C)(COC(C)=O)[C@@H](O)CC[C@@]2(C)[C@@H]1COc1ccc2ccc(=O)oc2c1 | > 100 µM | > 100 µM | > 100 µM | > 100 µM | > 100 µM | > 100 µM | > 100 µM | > 100 µM | 62.6 | > 100 µM | > 100 µM | > 100 µM | > 100 µM | > 100 µM | > 100 µM | > 100 µM | 61.2 µM | > 100 µM | > 100 µM | > 100 µM |
| COc1ccc2cc(-c3ccoc(=O)c3-c3cc(OC)c(OC)c(OC)c3)ccc2c1 | 1.48 µM | > 100 µM | 0.0842 µM | > 100 µM | 2.49 µM | > 100 µM | 0.0383 µM | 22.5 µM | 0.0346 | > 39.4 µM | 0.0238 µM |  | 0.148 µM | > 100 µM | 0.683 µM | > 100 µM | 0.112 µM | > 100 µM | 0.0536 µM | > 100 µM |
| O=S(=O)(NCCNC/C=C/c1ccc(Br)cc1)c1cccc2cnccc12 | 10.3 µM and 12.5 µM | 22.8 µM and 26.2 µM | 3.45 µM and 13.3 µM | 20.6 µM and 34.2 µM | 1.59 µM and 2.8 µM | 9.81 µM and 11.8 µM | 5.44 µM and 13.7 µM | 18.9 µM and 28.8 µM | 6.63 | > 36.7 µM and 27.3 µM | 9.78 µM and 13.7 µM | 23.3 µM and 28.8 µM | 8.1 µM and 14.2 µM | 21.7 µM and 29.7 µM | 7.33 µM and 11.2 µM | 20 µM and 25.4 µM | 9.55 µM and 13.8 µM | 23.9 µM and 26.7 µM | 9.35 µM and 14.5 µM | 22.2 µM and 30.2 µM |
| N#Cc1c(N/N=C/c2c(Cl)cccc2Cl)nc(N)nc1N1CCOCC1 | 5.48 µM | > 100 µM | 6.27 µM | > 100 µM | 12.4 µM | > 100 µM | 19.4 µM | > 100 µM | 2.34 | 11.3 µM | 4.06 µM | 71.7 µM | 11.7 µM | 56.1 µM | 82.1 µM | > 100 µM | 15.6 µM | > 100 µM | 3.7 µM | 31.4 µM |
| Clc1cc(Cl)c(OCC#CI)cc1Cl | 3.01 µM | 12 µM | 2.88 µM | > 100 µM | 15.1 µM | 37.1 µM | 2.1 µM | 5.66 µM | 3.49 | 18.9 µM | 13.9 µM | 27.5 µM | 13.5 µM | 28 µM | 2.12 µM | 5.14 µM | 15.4 µM | 29.6 µM | 5.05 µM | 19.4 µM |
| CN1CCN(Cc2ccc(NC(=O)c3cncc(C#Cc4cnc(N)c5ccncc45)c3)cc2C(F)(F)F)CC1 | 0.581 µM | 4.02 µM | 0.554 µM | 11.6 µM | 0.306 µM | 1.93 µM | 0.212 µM | 6.42 µM | 0.0146 | 5.21 µM | 0.027 µM | 5.52 µM | 0.307 µM | 1.26 µM | 0.245 µM | 2.18 µM | 0.782 µM | 7.65 µM | 0.227 µM | 1.86 µM |
